From article PMC9528225 (Molecular Immunology, 2012)

Target: HLA-DR15 (DRB1*1501) (Homo sapiens, UniProt P01903+P01911)
Assay: biochemical
Type: binding

Work on `CC(C)C[C@H](NC(=O)[C@H](Cc1ccc(O)cc1)NC(=O)[C@H](C)NC(=O)[C@H](CCCNC(=N)N)NC(=O)[C@H](CC(C)C)NC(=O)[C@H](CCC(N)=O)NC(=O)[C@H](CCC(=O)O)NC(=O)[C@H](C)NC(=O)[C@@H](N)CCC(=O)O)C(=O)N[C@@H](CC(=O)O)C(=O)NCC(=O)N[C@H](C(=O)NCC(=O)N[C@H](C(=O)N[C@@H](CCC(=O)O)C(=O)O)C(C)C)[C@@H](C)O` [A3 152–166] yielded an IC50 of 18 nM.
